# Data as given in patent US10219516B2, “Molecules having pesticidal utility, and intermediates, compositions, and processes, related thereto” (priority 2015, dated 2019).
# Where two headings read alike, the source gives them in different places.
# How the values were obtained:
# Type in all cases: in vivo
# [1] = test system: Cabbage Looper (Trichoplusia ni, TRIPNI); test: Bioassay on Cabbage Looper (CL), 128-well diet tray assay; conditions: Trichoplusia ni
# Procedure, shortened: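 Test molecule is dissolved in 90:10 acetone-water and applied at 50 μg/cm^2 onto artificial diet, then dried. One to five second-instar larvae go into each of eight wells. Trays, sealed but vented, stay at 25° C., 14:10 light-dark, five to seven days, after which mortality is averaged.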
# [2] = test system: Beet Armyworm (Spodoptera exigua, LAPHEG); test: Bioassay on Beet Armyworm (BAW), 128-well diet tray assay
# Procedure, shortened: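 Diet tray, 8 wells/compound; 50 μg/cm^2 applied to diet surface (90:10 acetone-water), dried. 1–5 L2 larvae/well; 25° C., 14:10 L:D, 5–7 d. Read-out: % mortality, mean of 8 wells.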
# [3] = test system: Yellow Fever Mosquito (Aedes aegypti, AEDSAE); test: Bioassay on Yellow Fever Mosquito (YFM), 96-well plate larval assay; conditions: for YFM (Biological Results, rating): Species YFM (Yellow Fever Mosquito)
# Procedure, shortened: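 Each well was scored for mortality after 3 days at room temperature under a non-evaporative lid. Test molecules came from DMSO masters (4000 ppm stock) diluted with water/acetone 90:10 and dispensed into six replicate plates, which were then infested with roughly 1-day-old larvae in liver-powder water.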
# [4] = test system: Green Peach Aphid (Myzus persicae, MYZUPE); test: Bioassay on Green Peach Aphid (GPA), foliar spray on infested cabbage seedlings; conditions: 72 h
# Procedure, shortened: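 Cabbage seedlings (2-3 true leaves) infested with 20-50 wingless adult and nymph aphids one day before treatment; sprayed to runoff at 200 ppm in 0.025% Tween 20 water with 20% acetone/methanol, four pots per treatment. Held three days at about 25° C; live aphids counted, % control by Abbott's correction versus solvent check.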
# [5] = Species CL (Cabbage Looper), read-out: CL (Biological Results, rating)
# [6] = Species BAW (Beet Armyworm), read-out: BAW (Biological Results, rating)
# [7] = foliar, Species GPA (Green Peach Aphid), read-out: GPA (Biological Results, rating)
smiles,measurement,setting,value
"CCCN(C(=O)c1cc(NC(=O)[C@H]2[C@H](c3cc(Cl)cc(Cl)c3)C2(Cl)Cl)ccc1Cl)c1ccc(F)cc1 (relative stereo) [F101, trans-2-Chloro-5-(2,2-dichloro-3-(3,5-dichlorophenyl)cyclopropane-1-carboxamido)-N-(4-fluorophenyl)-N-propylbenzamide]",pest or weed control at 50 µg/cm2,[1]; [5],50 to 100%
same,pest or weed control at 50 µg/cm2,[2]; [6],50 to 100%
same,"YFM (Biological Results, rating)",[3],A (80-100)
same,pest or weed control at 200 µg/mL,[4]; [7],0 to 80%
"O=C(Nc1ccc(F)cc1)c1cc(NC(=O)[C@H]2[C@H](c3cc(Cl)cc(Cl)c3)C2(Cl)Cl)ccc1F (relative stereo) [F129, trans-5-(2,2-Dichloro-3-(3,5-dichlorophenyl)cyclopropane-1-carboxamido)-2-fluoro-N-(4-fluorophenyl)benzamide]",pest or weed control at 50 µg/cm2,[1]; [5],50 to 100%
same,pest or weed control at 50 µg/cm2,[2]; [6],50 to 100%
same,"YFM (Biological Results, rating)",[3],A (80-100)
same,pest or weed control at 200 µg/mL,[4]; [7],80 to 100%
"O=C(Nc1ccc(F)cc1)c1nc(NC(=O)[C@H]2[C@H](c3cc(Cl)cc(Cl)c3)C2(Cl)Cl)ccc1Cl (relative stereo) [F131, trans-3-Chloro-6-(2,2-dichloro-3-(3,5-dichlorophenyl)cyclopropane-1-carboxamido)-N-(4-fluorophenyl)picolinamide]",pest or weed control at 50 µg/cm2,[1]; [5],50 to 100%
same,pest or weed control at 50 µg/cm2,[2]; [6],50 to 100%
same,"YFM (Biological Results, rating)",[3],A (80-100)
same,pest or weed control at 200 µg/mL,[4]; [7],0 to 80%
"O=C(Nc1ccc[n+]([O-])c1)c1cc(NC(=O)[C@H]2[C@H](c3cc(Cl)cc(Cl)c3)C2(Cl)Cl)ccc1Cl (relative stereo) [F139, trans-3-(2-chloro-5-(2,2-dichloro-3-(3,5-dichlorophenyl)cyclopropane-1-carboxamido)benzamido)pyridine 1-oxide]",pest or weed control at 50 µg/cm2,[1]; [5],50 to 100%
same,pest or weed control at 50 µg/cm2,[2]; [6],50 to 100%
same,"YFM (Biological Results, rating)",[3],A (80-100)
same,pest or weed control at 200 µg/mL,[4]; [7],0 to 80%
"O=C(Nc1cccnc1F)c1cc(NC(=O)[C@H]2[C@H](c3cc(Cl)cc(Cl)c3)C2(Cl)Cl)ccc1Cl (relative stereo) [F156, trans-2-Chloro-5-(2,2-dichloro-3-(3,5-dichlorophenyl)cyclopropane-1-carboxamido)-N-(2-fluoropyridin-3-yl)benzamide]",pest or weed control at 50 µg/cm2,[1]; [5],50 to 100%
same,pest or weed control at 50 µg/cm2,[2]; [6],50 to 100%
same,"YFM (Biological Results, rating)",[3],B (More than 0-Less than 80)
same,pest or weed control at 200 µg/mL,[4]; [7],80 to 100%
"O=C(Nc1c(F)cccc1F)c1cc(NC(=O)[C@H]2[C@H](c3cc(Cl)cc(Cl)c3)C2(Br)Br)ccc1Cl (relative stereo) [F162, trans-2-Chloro-5-(2,2-dibromo-3-(3,5-dichlorophenyl)cyclopropane-1-carboxamido)-N-(2,6-difluorophenyl)benzamide]",pest or weed control at 50 µg/cm2,[1]; [5],50 to 100%
same,pest or weed control at 50 µg/cm2,[2]; [6],50 to 100%
same,"YFM (Biological Results, rating)",[3],B (More than 0-Less than 80)
same,pest or weed control at 200 µg/mL,[4]; [7],0 to 80%
"O=C(Nc1c(F)cccc1F)c1cc(NC(=O)[C@H]2[C@H](c3ccc(Cl)c(F)c3)C2(Cl)Cl)ccc1Cl (relative stereo) [F163, trans-2-Chloro-5-(2,2-dichloro-3-(4-chloro-3-fluorophenyl)cyclopropane-1-carboxamido)-N-(2,6-difluorophenyl)benzamide]",pest or weed control at 50 µg/cm2,[1]; [5],50 to 100%
same,pest or weed control at 50 µg/cm2,[2]; [6],50 to 100%
same,"YFM (Biological Results, rating)",[3],B (More than 0-Less than 80)
same,pest or weed control at 200 µg/mL,[4]; [7],0 to 80%
"O=C(Nc1ccc(F)cc1F)c1cc(NC(=O)[C@H]2[C@H](c3cc(F)cc(C(F)(F)F)c3)C2(Cl)Cl)ccc1Cl (relative stereo) [F412, 2-Chloro-5-(trans)-(2,2-dichloro-3-(3-fluoro-5-(trifluoromethyl)phenyl)cyclopropane-1-carboxamido)-N-(2,4-difluorophenyl)benzamide]",pest or weed control at 50 µg/cm2,"[1]; Cabbage Looper, 128-well diet tray assay, read-out: CL rating",50 to 100%
same,pest or weed control at 50 µg/cm2,"[2]; Beet Armyworm, 128-well diet tray assay, read-out: BAW rating",50 to 100%
same,YFM rating,"[3]; Yellow Fever Mosquito, 96-well plate larval assay",A (80-100)
same,pest or weed control at 200 µg/mL,"[4]; Green Peach Aphid, foliar spray on cabbage seedlings, read-out: GPA rating",80 to 100%
